{"source": "paper PMC9263537", "about": "(Pharmacology Research & Perspectives, 2022)", "key": {"[1]": {"conditions": "mean population model parameter; cited from earlier work"}, "[2]": {"conditions": "immediate release tablets, cited from earlier work"}, "[3]": {"conditions": "paracetamol alone vs with semaglutide; cited from earlier work"}, "[4]": {"conditions": "final model with semaglutide covariate"}, "[5]": {"conditions": "model without semaglutide covariate"}, "[6]": {"conditions": "semaglutide 1.0 mg s.c. once weekly at steady state"}, "[7]": {"conditions": "young adults, body weight 62–84 kg"}}, "note": "Several values for one entry are separate records, joined by “and”; a condition that tells them apart may be missing. Equal values may be shown once. Read-outs that look alike come from different tables or passages of the source."}
{"molecule": "CC(C)c1c(C(=O)Nc2ccccc2)c(-c2ccccc2)c(-c2ccc(F)cc2)n1CC[C@@H](O)C[C@@H](O)CC(=O)O", "note": "[atorvastatin]", "values": [{"measurement": "T50 estimate", "setting": "atorvastatin with semaglutide", "result": 83, "unit": "min"}, {"measurement": "T50", "setting": "atorvastatin with semaglutide (Figure 8)", "result": 1.38, "unit": "h"}, {"measurement": "T50 estimate", "setting": "atorvastatin without semaglutide", "result": 16, "unit": "min"}, {"measurement": "ka (Placebo), Bootstrap mean [95%CI]", "setting": "bootstrap 1000 replicates", "result": "6.56 [3.29–12.1] h^−1"}, {"measurement": "ktr (Placebo), Bootstrap mean [95%CI]", "setting": "bootstrap 1000 replicates", "result": "10.4 [4.48–44.0] h^−1"}, {"measurement": "Θkacovariate, Bootstrap mean [95%CI]", "setting": "bootstrap 1000 replicates", "result": "0.821 [0.649–0.925]"}, {"measurement": "Θktrcovariate, Bootstrap mean [95%CI]", "setting": "bootstrap 1000 replicates", "result": "0.820 [0.629–0.972]"}, {"measurement": "ω^2 Ka, Bootstrap mean [95%CI]", "setting": "bootstrap 1000 replicates", "result": "2.21 [1.41–3.32]"}, {"measurement": "ω^2 Ktr, Bootstrap mean [95%CI]", "setting": "bootstrap 1000 replicates", "result": "1.82 [0.390–3.17]"}, {"measurement": "Between subject variability ω^2 Ka, Estimates", "setting": "[4]", "result": 2.03}, {"measurement": "Between subject variability ω^2 Ktr, Estimates", "setting": "[4]", "result": 1.82}, {"measurement": "Θkacovariate, Estimates", "setting": "fractional reduction of ka with semaglutide (dKadplacebo)", "result": 0.829}, {"measurement": "Θktrcovariate, Estimates", "setting": "fractional reduction of ktr with semaglutide (dKtrdplacebo)", "result": 0.791}, {"measurement": "BSV variance (Omega^2) for ka before semaglutide covariate", "setting": "[5]", "result": 3.29}, {"measurement": "BSV variance (Omega^2) for ktr before semaglutide covariate", "setting": "[5]", "result": 3.19}, {"measurement": "ka when co-administered with semaglutide", "setting": "[6]", "result": 0.986, "unit": "h⁻¹"}, {"measurement": "ktr when co-administered with semaglutide", "setting": "[6]", "result": 1.52, "unit": "h⁻¹"}, {"measurement": "ktr (Placebo), Estimates", "setting": "transit compartment rate constant, without semaglutide", "result": "7.3 h⁻¹ and 7.28 h⁻¹"}, {"measurement": "decrease of ka when co-administered with semaglutide", "setting": "with vs without semaglutide", "result": 83, "unit": "%"}, {"measurement": "decrease of ktr when co-administered with semaglutide", "setting": "with vs without semaglutide", "result": 79, "unit": "%"}, {"measurement": "ka", "setting": "[1]", "result": 3.5, "unit": "h^‐1"}]}
{"molecule": "CC(=O)Nc1ccc(O)cc1", "note": "[paracetamol]", "values": [{"measurement": "ka", "setting": "[2]", "result": 4.33, "unit": "h⁻¹"}, {"measurement": "V1/F", "setting": "[2]; [7]", "result": 30.7, "unit": "L"}, {"measurement": "V2/F", "setting": "[2]; [7]", "result": 19.9, "unit": "L"}, {"measurement": "alteration in paracetamol AUC0‐5h", "setting": "[3]", "result": "no significant alteration"}]}
